Measurements taken from patent US20160031859A1, “Alkyl [(S)-1-((S)-2--buta-1,3-diynyl)-phenyl]-1H-imidazol-2-yl}-pyrrolidine-1-carbonyl)-2-methyl-propyl]-carbamate naphthalene-1,5-disulfonate, pharmaceutical composition, medicament, method for treatment of viral diseases” (priority 2013, published 2016).

Key:
[1] = test system: subgenomic RNA-replicon HCV (genotype 1b, clon Con1); assay: HCV replicon immunoenzymatic assay in Huh7 cells, genotype 1b; type: cell-based; conditions: Hepatitis C virus, Huh-7, read-out: gT1b FBS EC50
Protocol: Determination of antiviral activity of the compounds of the general formula 1 (inhibiting ability of NS5A protein).
Inhibiting ability of compounds of formula 1 of NS5A protein was determined in the human hepatoma cell line Huh7, comprising subgenomic RNA-replicon HCV (genotype 1b, don Con1). A version of immumoenzymatic assay (IEA) on viral protein NS5A in 96-well plate was used as an experimental method. Cytotoxicity of the compounds was estimated in parallel regime.
Cells Huh7 were seeded in 96-well plate (7.5×10^3 cells to each well in 100 μl of culture medium). Solutions of the tested compounds in DMEM medium {DMEM 1×; Source: Cellgro; Catalogue: 10-013-CV} were prepared immediately before use. Eleven serial three fold dilutions with variation of concentrations from 20 nM to 0.2 pM were prepared. In 4 hours after seeding, serial dilutions of the compounds were added to the cells (100 μl to each well). Final concentration of tested compounds was varied from 10 nM to 0.1 pM, and DMSO—0.5%. If it was necessary, higher concentrations of the disclosed azoles were investigated. Each dilution of the compound was tested on two identical wells. […] The reaction was arrested by the addition of 2N H2SO4 in amount of 100 μl/well, and optical density (wavelength 490 nm) was measured by means of multiscan plate reader Victor3 V 1420 (Perkin Elmer). […]

genotype 1a HCV = assay: HCV replicon inhibitory activity, genotype 1a; type: cell-based; conditions: Hepatitis C virus; HCV genotype 1a, FBS; read-out: gT1a FBS EC50
[2] = Investigation of storage of naphthalene-1,5-disulfonates (amount of admixtures, UV 220 nm); type: physicochemical; conditions: for Max admixture / Sum of admixtures: refrigerator, 4.7° C.
Protocol: Investigation of storage of naphthalene-1,5-disulfonates of the general formula 1. All samples were stored in glass vials sealed with rubber cork and aluminum caps, in a refrigerator at a temperature of about ˜4.7 ° C. The amount of admixtures was determined by method of internal normalization, detection was carried out using UV detector at 220 nm. Below are given the test results for compound 1.1 showing their stability at temperature 4.7° C.

genotype 2a HCV = assay: HCV replicon inhibitory activity, genotype 2a; type: cell-based; conditions: Hepatitis C virus; HCV genotype 2a, FBS; read-out: gT2a FBS EC50

Q: What does the source list for `COC(=O)N[C@H](C(=O)N1CCC[C@H]1c1ncc(C#CC#Cc2ccc(-c3cnc([C@@H]4CCCN4C(=O)[C@@H](NC(=O)OC)C(C)C)[nH]3)cc2)[nH]1)C(C)C` [Compound 1.1, methyl [(S)-1-((S)-2-{5-[4-(4-{2-[(S)-1-((S)-2-methoxycarbonylamino-3-methyl-butyryl)-pyrrolidin-2-yl]-3H-imidazol-4-yl}-buta-1,3-diynyl)-phenyl]-1H-imidazol-2-yl}-pyrrolidine-1-carbonyl)-2-methylpropyl]-carbamate naphthalene-1,5-disulfonate]?
A: EC50 [1]: < 1 nM; EC50 (genotype 1a HCV): < 1 nM; Max admixture ([2]; 1 week storage): 0.348%; Sum of admixtures ([2]; 1 week storage): 1.369%; Max admixture ([2]; 4 weeks storage): 0.341%; Sum of admixtures ([2]; 4 weeks storage): 1.506%; Max admixture ([2]; 20 weeks storage): 0.298%; Sum of admixtures ([2]; 20 weeks storage): 1.493%; Max admixture ([2]; before the test): 0.342%; Sum of admixtures ([2]; before the test): 1.312%; storage stability, in words ([2]; temperature 4.7° C.): stability; EC50 (genotype 2a HCV): < 1 nM
